Target: T1, hNPY1R (Homo sapiens, UniProt P25929)
T1 construct: SK-N-MC cells endogenously expressing the NPY1R receptor; endogenous in cells; host or cells: SK-N-MC cells (crude membrane fractions)
T1 sequence (P25929 1-384): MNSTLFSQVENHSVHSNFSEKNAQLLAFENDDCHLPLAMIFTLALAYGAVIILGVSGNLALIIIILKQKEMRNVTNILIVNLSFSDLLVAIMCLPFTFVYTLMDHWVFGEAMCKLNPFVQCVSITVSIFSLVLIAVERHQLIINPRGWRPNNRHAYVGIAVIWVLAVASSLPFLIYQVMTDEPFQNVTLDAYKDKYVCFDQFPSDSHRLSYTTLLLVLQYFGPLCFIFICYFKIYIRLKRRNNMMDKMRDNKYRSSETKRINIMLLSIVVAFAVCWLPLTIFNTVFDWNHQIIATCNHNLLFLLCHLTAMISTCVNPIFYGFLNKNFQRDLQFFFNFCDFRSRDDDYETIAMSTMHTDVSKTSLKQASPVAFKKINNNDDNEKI
Test: NPY1R binding assay: SK-N-MC membranes, [125I]-Peptide YY (human) competition
Conditions: data obtained after 60 minutes at 37° C.; SK-N-MC membranes; [125I]-Peptide YY 0.05 nM; read-out: hNPY1R binding Ki* †
Method: Crude membrane fractions are prepared from SK-N-MC cells endogenously expressing the NPY1R receptor. The cells are grown to 85-100% confluence on standard tissue culture dishes in Eagle's Minimum Essential Medium supplemented with 10% dialyzed FBS. To prepare membranes, cells are scraped and collected in 1× Dulbecco's phosphate buffered saline and then pelleted at 1000 RPM's. The cell pellet is reconstituted in membrane preparation buffer (20 mM HEPES, 6 mM MgCl2 and 1 mM EGTA, protease inhibitor tablets, pH 7.4) and placed in a cell disruption vessel at 1000 PSI for 30 minutes on ice. The pressurized contents are then released and spun down at 1000 RPMs and the supernatant is collected and further centrifuged at 15,000 RPMs to pellet the membranes. The membrane pellet is resuspended in membrane preparation buffer, snap frozen and stored at −80° C. for later use.
[…] Assay contents are then filtered through unifilter GF/C microplates and washed with 9×400 μl of cold wash buffer (25 mM HEPES, 5 mM MgCl2, 1 mM CaCl2), 500 mM NaCl, 0.1% Tween-20, pH 7.4). Assay plates are read using a Top Count NXT and Ki values for compounds are determined using a GraphPad Prism 6 non-linear regression analysis.

Structure (SMILES) | Ki
CCC(=O)NCCNC(=O)/N=C(/N)NCCC[C@@H](NC(=O)C(c1ccccc1)c1ccc(NCCCNc2c(NCCNC(=O)CN3CCN(CC(=O)O)CCN(CC(=O)O)CCN(CC(=O)O)CC3)c(=O)c2=O)cc1)C(=O)NCc1ccc(O)cc1 (single isomer, unassigned) [Compound 124A] | 0.01 to 0.1 µM
CCC(=O)NCCNC(=O)/N=C(/N)NCCC[C@@H](NC(=O)C(c1ccccc1)c1cccc(OCCOCCOCCOCCOCCNC(=O)CN2CCN(CC(=O)O)CCN(CC(=O)O)CCN(CC(=O)O)CC2)c1)C(=O)NCc1ccc(CNC(N)=O)cc1 (single isomer, unassigned) [Compound 114A] | 0.01 to 0.1 µM
CCC(=O)NCCNC(=O)/N=C(/N)NCCC[C@@H](NC(=O)C(c1ccccc1)c1cccc(OCCCCNC(=O)CCC(=O)N(CC(=O)O)C2CCN(C(=O)CN3CCN(CC(=O)O)CCN(CC(=O)O)CCN(CC(=O)O)CC3)CC2)c1)C(=O)NCc1ccc(O)cc1 (single isomer, unassigned) [Compound 117B] | < 0.01 µM
CCC(=O)NCCNC(=O)/N=C(/N)NCCC[C@@H](NC(=O)C(c1ccccc1)c1cccc(OCCCCNC(=O)CCOCCNC(=O)CN2CCN(CC(=O)O)CCN(CC(=O)O)CCN(CC(=O)O)CC2)c1)C(=O)NCc1ccc(O)cc1 (single isomer, unassigned) [Compound 108B] | < 0.01 µM
CCC(=O)NCCNC(=O)/N=C(/N)NCCC[C@@H](NC(=O)C(c1ccccc1)c1ccc(NCCCNC(=O)CCOCCOCCNC(=O)CN2CCN(CC(=O)O)CCN(CC(=O)O)CCN(CC(=O)O)CC2)cc1)C(=O)NCc1ccc(O)cc1 (single isomer, unassigned) [Compound 103B] | < 0.01 µM
CCC(=O)NCCNC(=O)/N=C(/N)NCCC[C@@H](NC(=O)C(c1ccccc1)c1cccc(OCCOCCOCCOCCOCCNC(=O)CN2CCN(CC(=O)O)CCN(CC(=O)O)CCN(CC(=O)O)CC2)c1)C(=O)NCc1ccc(CNC(N)=O)cc1 (single isomer, unassigned) [Compound 114B] | 0.01 to 0.1 µM
CCC(=O)NCCNC(=O)/N=C(/N)NCCC[C@@H](NC(=O)C(c1ccccc1)c1cccc(OCCCCNC(=O)[C@H](N)CCCCNC(=O)CN2CCN(CC(=O)O)CCN(CC(=O)O)CCN(CC(=O)O)CC2)c1)C(=O)NCc1ccc(O)cc1 (single isomer, unassigned) [Compound 109B] | < 0.01 µM

Same assay, conditions: data obtained after 120 minutes at rt; SK-N-MC membranes; [125I]-Peptide YY; read-out: hNPY.R binding Ki* ††

Structure (SMILES) | Ki
CCC(=O)NCCNC(=O)/N=C(/N)NCCC[C@@H](NC(=O)C(c1ccccc1)c1cccc(NCCCNC(=O)CCOCCNC(=O)CN2CCN(CC(=O)O)CCN(CC(=O)O)CCN(CC(=O)O)CC2)c1)C(=O)NCc1ccc(O)cc1 (single isomer, unassigned) [Compound 121B] | < 0.01 µM
CCC(=O)NCCNC(=O)/N=C(/N)NCCC[C@@H](NC(=O)C(c1ccccc1)c1ccc(NCCCNc2c(NCCNC(=O)CN3CCN(CC(=O)O)CCN(CC(=O)O)CCN(CC(=O)O)CC3)c(=O)c2=O)cc1)C(=O)NCc1ccc(O)cc1 (single isomer, unassigned) [Compound 124A] | < 0.01 µM
CCC(=O)NCCNC(=O)/N=C(/N)NCCC[C@@H](NC(=O)C(c1ccccc1)c1ccc(NCCCNC(=O)[C@H](N)CCCNC(=O)[C@@H](Cc2ccc(-c3ccccc3)cc2)NC(=O)CN2CCN(CC(=O)O)CCN(CC(=O)O)CCN(CC(=O)O)CC2)cc1)C(=O)NCc1ccc(O)cc1 (stereo partly drawn) [Compound 134B-In, indium (III) 2,2′,2″-(10-(2-(((R)-3-([1,1′-biphenyl]-4-yl)-1-(((R)-4-amino-5-((3-((4-((4R,Z)-9-amino-4-((4-hydroxybenzyl)carbamoyl)-2,11,16-trioxo-1-phenyl-3,8,10,12,15-pentaazaoctadec-9-en-1-yl)phenyl)amino)propyl)amino)-5-oxopentyl)amino)-1-oxopropan-2-yl)amino)-2-oxoethyl)-1,4,7,10-tetraazacyclododecane-1,4,7-triyl)triacetic acid] | < 0.01 µM
CCC(=O)NCCNC(=O)/N=C(/N)NCCC[C@@H](NC(=O)C(c1ccccc1)c1ccc(NCCCNC(=O)CN(C)C(=O)CN(C)C(=O)CN(C)C(=O)CN2CCN(CC(=O)O)CCN(CC(=O)O)CCN(CC(=O)O)CC2)cc1)C(=O)NCc1ccc(O)cc1 (single isomer, unassigned) [Compound 159] | < 0.01 µM
CCC(=O)NCCNC(=O)/N=C(/N)NCCC[C@@H](NC(=O)C(c1ccccc1)c1cccc(OCCCCNc2c(NCCONC(=O)CN3CCN(CC(=O)O)CCN(CC(=O)O)CCN(CC(=O)O)CC3)c(=O)c2=O)c1)C(=O)NCc1c(F)cc(O)cc1F (single isomer, unassigned) [Compound 169] | < 0.01 µM
CCC(=O)NCCNC(=O)/N=C(/N)NCCC[C@@H](NC(=O)C(c1ccccc1)c1cccc(OCCCCNC(=O)CCNC(=O)CN2CCN(CC(=O)O)CCN(CC(=O)O)CCN(CC(=O)O)CC2)c1)C(=O)NCc1c(F)cc(O)cc1F (single isomer, unassigned) [Compound 162B] | < 0.01 µM
N=C(N)NCCC[C@@H](NC(=O)[C@@H](c1ccccc1)c1cccc(OCCCCNC(=O)[C@H](N)CCCCNC(=O)CN2CCN(CC(=O)O)CCN(CC(=O)O)CCN(CC(=O)O)CC2)c1)C(=O)NCc1ccc(O)cc1 [Compound 138, 2,2′,2″-(10-(2-(((R)-5-amino-6-((4-(3-((S)-2-(((R)-5-guanidino-1-((4-hydroxybenzyl)amino)-1-oxopentan-2-yl)amino)-2-oxo-1-phenylethyl)phenoxy)butyl)amino)-6-oxohexyl)amino)-2-oxoethyl)-1,4,7,10-tetraazacyclododecane-1,4,7-triyl)triacetic acid] | 0.01 to 0.1 µM
CCC(=O)NCCNC(=O)/N=C(/N)NCCC[C@@H](NC(=O)C(c1ccccc1)c1cccc(OCCCCNC(=O)CCC(=O)N(CC(=O)O)C2CCN(C(=O)CN3CCN(CC(=O)O)CCN(CC(=O)O)CCN(CC(=O)O)CC3)CC2)c1)C(=O)NCc1ccc(O)cc1 (single isomer, unassigned) [Compound 117B] | < 0.01 µM
CCC(=O)NCCNC(=O)/N=C(/N)NCCC[C@@H](NC(=O)C(c1ccccc1)c1ccc(NCCCNC(=O)[C@H](N)CCCNC(=O)CN2CCN(CC(=O)O)CCN(CC(=O)O)CCN(CC(=O)O)CC2)cc1)C(=O)NCc1ccc(O)cc1 (single isomer, unassigned) [Compound 135B] | < 0.01 µM
CCC(=O)NCCNC(=O)/N=C(/N)NCCC[C@@H](NC(=O)C(c1ccccc1)c1ccc(NCCCNc2c(NCCNC(=O)[C@@H](CN)NC(=O)CN3CCN(CC(=O)O)CCN(CC(=O)O)CCN(CC(=O)O)CC3)c(=O)c2=O)cc1)C(=O)NCc1ccc(O)cc1 (single isomer, unassigned) [Compound 137A] | < 0.01 µM
CCC(=O)NCCNC(=O)/N=C(/N)NCCC[C@@H](NC(=O)C(c1ccccc1)c1cccc(OCCCCNC(=O)CCCCCNC(=O)CN2CCN(CC(=O)O)CCN(CC(=O)O)CCN(CC(=O)O)CC2)c1)C(=O)NCc1ccc(O)cc1 (single isomer, unassigned) [Compound 140B] | < 0.01 µM
CCC(=O)NCCNC(=O)/N=C(/N)NCCC[C@@H](NC(=O)C(c1ccccc1)c1cccc(OCCCCNC(=O)CONC(=O)CCNC(=O)CN2CCN(CC(=O)O)CCN(CC(=O)O)CCN(CC(=O)O)CC2)c1)C(=O)NCc1c(F)cc(O)cc1F (single isomer, unassigned) [Compound 167] | < 0.01 µM
CCC(=O)NCCNC(=O)/N=C(/N)NCCC[C@@H](NC(=O)C(c1ccccc1)c1cccc(OCCCCNC(=O)[C@@H](CCCN)NC(=O)CCNC(=O)CN2CCN(CC(=O)O)CCN(CC(=O)O)CCN(CC(=O)O)CC2)c1)C(=O)NCc1ccc(O)cc1 (single isomer, unassigned) [Compound 147A] | < 0.01 µM
CCC(=O)NCCNC(=O)/N=C(/N)NCCC[C@@H](NC(=O)C(c1ccccc1)c1cccc(OCCCCNc2c(NCCNC(=O)[C@@H](CCCCN)NC(=O)CN3CCN(CC(=O)O)CCN(CC(=O)O)CCN(CC(=O)O)CC3)c(=O)c2=O)c1)C(=O)NCc1ccc(O)cc1 (single isomer, unassigned) [Compound 116A] | < 0.01 µM

— patent publication US20240226343A1, “NEUROPEPTIDE Y1 RECEPTOR (NPY1R) TARGETED THERAPEUTICS AND USES THEREOF” (RADIONETICS ONCOLOGY, INC., priority 2022, published 2024)
